US20230365533A1, “BICYCLOHEPTANE PYRROLIDINE OREXIN RECEPTOR AGONISTS” (MERCK SHARP & DOHME CORP., priority 2021, published 2023)

Target: T1, human OX2R (Homo sapiens, UniProt O43614)
T1 construct: expressed in transfected cells; host or cells: CHO (Chinese hamster ovary) cells, grown under G418 selection
T1 sequence (O43614 1-444): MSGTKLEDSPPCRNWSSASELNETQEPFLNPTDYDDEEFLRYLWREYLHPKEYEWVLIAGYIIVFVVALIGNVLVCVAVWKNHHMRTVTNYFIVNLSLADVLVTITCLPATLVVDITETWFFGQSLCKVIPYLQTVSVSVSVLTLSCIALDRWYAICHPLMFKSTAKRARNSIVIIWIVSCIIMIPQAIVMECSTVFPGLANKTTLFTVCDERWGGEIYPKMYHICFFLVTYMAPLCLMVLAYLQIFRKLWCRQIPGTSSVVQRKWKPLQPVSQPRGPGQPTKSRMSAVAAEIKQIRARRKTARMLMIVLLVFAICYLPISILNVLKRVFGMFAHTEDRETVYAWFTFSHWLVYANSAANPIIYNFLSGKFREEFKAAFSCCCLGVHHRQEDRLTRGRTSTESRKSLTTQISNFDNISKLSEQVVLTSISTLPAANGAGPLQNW
Test: IPOne (IP-1) orexin receptor agonist assay in CHO cells expressing human OX2R
Type: cell-based
Settings: for IC50: IPOne assay, CHO cells expressing human OX2R, 2 hours incubation, read-out: hoX2R_IP IC50
From the text: The utility of the compounds in accordance with the present invention as orexin receptor OX1R and/or OX2R agonists may be readily determined without undue experimentation by methodology well known in the art. Both the OX1R and/or OX2R G-coupled protein receptors (GPCRs) couple through the Gaq signaling pathway, which ultimately promotes calcium mobilization via inositol triphosphate (IP3) production. The half-life of IP-3 is relatively short, being rapidly metabolized to inositol monophosphate (IP-1), which can be readily detected using a commercially available assay kit (IP-One; Cisbio; cat #621PAPEC) coupled with a cell line expressing the target receptor(s) of interest. The utility of the compounds in accordance with the present invention as orexin receptor OX1R and/or OX2R agonists may be determined utilizing this assay.
In a typical experiment, the OX1 and OX2 receptor agonist activity is determined in accordance with the following general experimental method. Chinese hamster ovary (CHO) cells expressing human OX1R and/or the human OX2R were grown in Iscove's modified DMEM containing glutaMAX™, 1% G418, 100 U/mL penicillin, 100 μg/mL streptomycin and 10% heat-inactivated qualified fetal bovine serum (FBS). The OX2R cells were seeded at 10,000 cells/well/50 μL and the OX1R cells were seeded at 20,000 cells/well/50 μL into 384-well white tissue culture plates (Greiner; cat #781080). All cell/media reagents were from GIBCO-Invitrogen Corp. The seeded cell plate(s) were incubated at 37° C. with 5% CO2 and 85% humidity for 20-24 hours. On the day of the assay, assay-ready compound plates were prepared using an acoustic liquid handler (ECHO; Labcyte), which dispensed sufficient volume of test compound stock (10 mM in DMSO) or 100% DMSO to prepare 10 point, ½-log dilutions in a final volume of 202.5 nL/well in all test wells of a 384-well diamond plate (Labcyte). Following completion of assay-ready plates, importantly, the next three steps were performed with minimal delay: 1) 20 μl of 1×stimulation buffer was added to the compound plate using a Multidrop Combi (small cassette, Thermo Fisher Scientific cat #24073290); 2) culture medium was removed from the cell plate using the Bluewasher plate washer (gentle spin; BlueCatBio); 3) 14 μl of compound/stimulation buffer mixture was added to the cell plate using a Bravo liquid handler (Agilent) prior to incubating cell plates at 37° C. with 5% CO2 and 85% humidity for 1 or 2 hours (OX1R and OX2R, respectively). During this incubation, IP-one detection reagents were prepared (38:1:1 lysis buffer:D2:AB-cryptate reagents). Six μL of mixed detection reagents were added to the cell plate using a Multidrop Combi (small cassette, Thermo Fisher Scientific cat #24073290) and incubated 60 minutes at room temperature in the dark. Fluorescence signal was detected using an Envision plate reader (Perkin Elmer) [LANCE/DELFIA Dual Enh (Em: APC 665; Ex: Cy5 620)].
For each compound, data were fit to a four parameter logistic fit (ActivityBase software) and the EC50 was reported as the inflection point of the resulting curve. Percent effect for each test compound was determined as the percentage of sample raw value/mean max effect, where the mean max effect was derived from the mean raw value of 32 control wells per assay plate (using Orexin A (cat #003-30) at 1 μM for human OX1R and a reference compound at 1 uM with 100% activity previously established by comparison to Orexin A for human OX2R). The intrinsic orexin receptor agonist activity of a compound which may be used in the present invention may be determined by these assays.

SMILES	IC50 [nM]	Emax (CHO, percent of mean max effect of a reference compound at 1 uM with 100% activity vs Orexin A, human OX2R) [%]
COC(=O)N1[C@H](C(F)F)C[C@H](NS(=O)(=O)C2CC2)[C@@H]1COC1CCC2(c3ncc(F)cn3)CC2C1 (stereo partly drawn) [Example 116, methyl (2R,3S,5S)-3-(cyclopropanesulfonamido)-5-(difluoromethyl)-2-(((6-(5-fluoropyrimidin-2-yl)bicyclo[4.1.0]heptan-3-yl)oxy)methyl)pyrrolidine-1-carboxylate]	2.3	
COC(=O)N1[C@H](C)C[C@H](NS(=O)(=O)Cc2ccccc2)[C@@H]1CO[C@H]1CC[C@@]2(c3ncc(F)cn3)C[C@H]2C1 [Example 34, methyl (2R,3S,5R)-2-((((1S,3S,6R)-6-(5-fluoropyrimidin-2-yl)bicyclo[4.1.0]heptan-3-yl)oxy)methyl)-5-methyl-3-((phenylmethyl)sulfonamido)pyrrolidine-1-carboxylate]	34.4	
COC(=O)N1[C@H](C)C[C@H](NS(=O)(=O)N(C)C)[C@@H]1COC1CCC2(c3cnccn3)CC2C1 (single isomer, unassigned) [Example 11]	146	
C[C@@H]1C[C@H](NS(C)(=O)=O)[C@H](CO[C@H]2CC[C@@]3(c4ncc(F)cn4)C[C@H]3C2)N1C(=O)OCC(F)F [Example 66, 2,2-difluoroethyl (2R,3S,5R)-2-((((1S,3S,6R)-6-(5-fluoropyrimidin-2-yl)bicyclo[4.1.0]heptan-3-yl)oxy)methyl)-5-methyl-3-(methylsulfonamido)pyrrolidine-1-carboxylate]	0.6	
COC(=O)N1[C@H](C)C[C@H](NS(=O)(=O)CF)[C@@H]1COC1CCC2(c3ncc(Br)cn3)CC2C1 (stereo partly drawn) [Example 89, methyl (2R,3S,5R)-2-(((6-(5-bromopyrimidin-2-yl)bicyclo[4.1.0]heptan-3-yl)oxy)methyl)-3-((fluoromethyl)sulfonamido)-5-methylpyrrolidine-1-carboxylate]	1	
C[C@@H]1C[C@H](NS(C)(=O)=O)[C@H](CO[C@H]2CC[C@@]3(c4ncc(F)cn4)C[C@H]3C2)N1C(=O)OCC(F)(F)F [Example 65, 2,2,2-trifluoroethyl (2R,3S,5R)-2-((((1S,3S,6R)-6-(5-fluoropyrimidin-2-yl)bicyclo[4.1.0]heptan-3-yl)oxy)methyl)-5-methyl-3-(methylsulfonamido)pyrrolidine-1-carboxylate]	1.6	
C[C@@H]1C[C@H](NS(C)(=O)=O)[C@H](CO[C@H]2CC[C@@]3(c4ncc(F)cn4)C[C@H]3C2)N1C(=O)OCC1(F)CCC1 [Example 53, (1-fluorocyclobutyl)methyl (2R,3S,5R)-2-((((1S,3S,6R)-6-(5-fluoropyrimidin-2-yl)bicyclo[4.1.0]heptan-3-yl)oxy)methyl)-5-methyl-3-(methylsulfonamido)pyrrolidine-1-carboxylate]	6.1	
CC(C)OC(=O)N1[C@H](C)C[C@H](NS(=O)(=O)C(F)F)[C@@H]1COC1CCC2(c3ncc(Cl)cn3)CC2C1 (stereo partly drawn) [Example 82, isopropyl (2R,3S,5R)-2-(((6-(5-chloropyrimidin-2-yl)bicyclo[4.1.0]heptan-3-yl)oxy)methyl)-3-((difluoromethyl)sulfonamido)-5-methylpyrrolidine-1-carboxylate]	10.8	
CC(C)OC(=O)N1CCC[C@H](NS(=O)(=O)C2CC2)[C@@H]1COC1CCC2(c3ncc(F)cn3)CC2C1 (stereo partly drawn) [Example 122, isopropyl (2R,3S)-3-(cyclopropanesulfonamido)-2-(((6-(5-fluoropyrimidin-2-yl)bicyclo[4.1.0]heptan-3-yl)oxy)methyl)piperidine-1-carboxylate]	6.1	
COC(=O)N1[C@H](C)C[C@H](NS(=O)(=O)C(C)C)[C@@H]1CO[C@H]1CC[C@@]2(c3ncc(F)cn3)C[C@H]2C1 [Example 38, methyl (2R,3S,5R)-2-((((1S,3S,6R)-6-(5-fluoropyrimidin-2-yl)bicyclo[4.1.0]heptan-3-yl)oxy)methyl)-5-methyl-3-((1-methylethyl)sulfonamido)pyrrolidine-1-carboxylate]	0.9	
CCC(F)(F)COC(=O)N1[C@H](C)C[C@H](NS(C)(=O)=O)[C@@H]1CO[C@H]1CC[C@@]2(c3ncc(F)cn3)C[C@H]2C1 [Example 60, 2,2-difluorobutyl (2R,3S,5R)-2-((((1S,3S,6R)-6-(5-fluoropyrimidin-2-yl)bicyclo[4.1.0]heptan-3-yl)oxy)methyl)-5-methyl-3-(methylsulfonamido)pyrrolidine-1-carboxylate]	1.4	
COC(=O)N1[C@@H]2CCC[C@@H]2[C@H](NS(=O)(=O)CF)[C@@H]1COC1CCC2(c3ncc(F)cn3)CC2C1 (stereo partly drawn) [Example 130, methyl (2R,3S,3aS,6aR)-3-((fluoromethyl)sulfonamido)-2-(((6-(5-fluoropyrimidin-2-yl)bicyclo[4.1.0]heptan-3-yl)oxy)methyl)hexahydrocyclopenta[b]pyrrole-1(2H)-carboxylate]	1.4	
COC(=O)N1[C@H](C)C[C@H](NS(=O)(=O)N(C)C)[C@@H]1COC1CCC2(c3cnccn3)CC2C1 (stereo partly drawn) [Example 13, methyl (2R,3S,5R)-3-((N,N-dimethylsulfamoyl)amino)-5-methyl-2-(((6-(pyrazin-2-yl)bicyclo[4.1.0]heptan-3-yl)oxy)methyl)pyrrolidine-1-carboxylate]	461	
COC(=O)N1[C@@H]2CCC[C@@H]2[C@H](NS(C)(=O)=O)[C@@H]1COC1CCC2(c3ncccn3)CC2C1 (stereo partly drawn) [Example 175, methyl (2R,3S,3aS,6aR)-3-(methylsulfonamido)-2-(((6-(pyrimidin-2-yl)bicyclo[4.1.0]heptan-3-yl)oxy)methyl)hexahydrocyclopenta[b]pyrrole-1(2H)-carboxylate]	22.6	
COC(=O)N1[C@H](C)C[C@H](NS(C)(=O)=O)[C@@H]1CO[C@H]1CC[C@@]2(c3ncc(Cl)cn3)C[C@H]2C1 (single isomer, unassigned) [Example 142]	2.8	
COC(=O)N1CC[C@H](NS(C)(=O)=O)[C@@H]1COC1CCC2(c3ncccn3)CC2C1 (mixture of isomers) [Example 21, methyl (2R,3S)-3-(methylsulfonamido)-2-(((6-(pyrimidin-2-yl)bicyclo[4.1.0]heptan-3-yl)oxy)methyl)pyrrolidine-1-carboxylate]	1620	94.6
COC(=O)N1[C@H](C)C[C@H](NS(=O)(=O)N(C)C)[C@@H]1COC1CCC2(c3cc(F)cc(F)c3)CC2C1 (stereo partly drawn) [Example 4, methyl (2R,3S,5R)-2-(((6-(3,5-difluorophenyl)bicyclo[4.1.0]heptan-3-yl)oxy)methyl)-3-((N,N-dimethylsulfamoyl)amino)-5-methylpyrrolidine-1-carboxylate]	604	
COC(=O)N1[C@H](C)C[C@H](NS(=O)(=O)CF)[C@@H]1COC1CCC2(c3ncc(F)c(OC)n3)CC2C1 (stereo partly drawn) [Example 85, methyl (2R,3S,5R)-2-(((6-(5-fluoro-4-methoxypyrimidin-2-yl)bicyclo[4.1.0]heptan-3-yl)oxy)methyl)-3-((fluoromethyl)sulfonamido)-5-methylpyrrolidine-1-carboxylate]	25.2	
